Laboratory results from US11147781B2, “Methods for alleviating statin myopathy” (priority 2014, dated 2021).

Assays:
[1] = system: patients with statin-induced myopathy (SIM); type: in vivo, human
Procedure: A clinical study was conducted to evaluate the effects of HMB on patients with statin-induced myopathy (SIM). A total of eighteen patients were evaluated for the study with informed written consent obtained. Of the eighteen patients, fourteen (14) ultimately qualified as having true statin myalgia and were enrolled in the study. All patients enrolled were under the care of a board certified cardiologist.
A summary of the enrolled patients and their outcomes is as follows: • 1. All 14 had type 2a or mixed hyperlipidemia. • 2. All 14 had been treated with multiple statin agents, in each case withdrawing from the statin agent due to myalgia/myopathy. • 3. Of the 14 patients enrolled, 4 had elevated CPKs (creatine phosphokinase, a biomarker for myositis/rhabdomyolysis) secondary to SIM. • 4. Five of the 14 patients had undergone prior percutaneous coronary intervention with stents. • 5. One of the 14 patients had undergone prior coronary bypass surgery. • 6. Four of the 14 patients had angiographically documented moderate coronary artery disease not requiring percutaneous coronary intervention (PCI)/coronary bypass. • 7. Four of the 18 patients were disqualified due to the following: • Patient's leg myalgia was secondary to angiographically proven peripheral vascular disease, not SIM and symptoms were consistent with this diagnosis. • Patient's unilateral leg pain was secondary to neuropathy, not SIM. • Patient complained of GI upset on combined statin+3-hydroxy 3-methybutyrate and medication was discontinued. […] All 14 qualified patients remained on combination statin (in some cases with Zetia to achieve target) plus HMB therapy after the initial duration of the study. As noted, of those who had previously discontinued statin therapy, all had been tried on multiple statin agents without success. • 9. Follow up was conducted with all patients including out-patient visits and phone conversation. • 10.
The free acid form was used in one patient who experienced major CPK elevations (900-1000 IU/L range) and disabling myalgia on statins.
For this study, patients were evaluated using multiple laboratories with variable lab normal ranges, which are included. In the patient population as a whole, the full spectrum of SIM is presented, including statin myalgia […] CPK elevation (myositis or rhabdomyolysis depending on severity), elevation of CPK without myalgia, post-statin elevation of CPK with and without pain, post-statin myalgia without CPK elevation, and, finally, statin-induced muscle weakness without myalgia. Also represented were other statin-induced side effects such as short-term memory loss and glucose intolerance.

[2] = No Observed Adverse Effect Level (NOAEL) for HMB oral ingestion in rats; type: in vivo
Procedure: This is an estimated human equivalent of 558 mg/kg and 665 mg/kg for men and women, respectively; assuming a body weight of 150 lbs equates to 38 g (males) and 45 g (females). […] Overall, standard doses of HMB appear to be well-tolerated over long periods of time.

[3] = system: statin-induced glucose intolerance; assay: Treatment of statin-induced glucose intolerance using HMB; type: in vivo, human
From the text: Glucose intolerance with hyperglycemia/increased risk for diabetes, probably related to insulin resistance, has been reported in statin users, especially lipophilic statins such as […], less so in hydrophilic statins such as pravastatin. Here, HMB administration is used to treat statin-related glucose intolerance. Protocol: type 1, 1.5, and 2 diabetics with hemoglobin A1C at or exceeding 6.5% are eligible; also eligible are hyperglycemic/increased risk for diabetes patients not on diabetic treatment but with a hemoglobin A1C at or exceeding 5.7%; patients with critical value fasting blood glucose and hemoglobin A1C levels are excluded. Once enrolled, the following steps are initiated: • 1. Continue statin and diabetic medications with dosages unchanged; • 2. Initiate calcium HMB monohydrate, 2 g twice daily, or HMB free acid (gel form), 1 g three times daily; • 3. Repeat fasting blood glucose and hemoglobin A1C in 3 weeks and 6 weeks;

[4] = system: statin-induced short-term memory loss; assay: Treatment of statin-induced short-term memory loss with HMB; type: in vivo, human; details: within two months of HMB treatment, statin continued
From the text: HMB administration is used to treat short-term memory loss, an unusual side effect resulting from statin administration. […] Protocol: Patient describes short term memory loss after starting statin. Initiate the following steps: • 1. Assess memory loss with standardized neuro-psychometric testing as baseline status; • 2. Initiate calcium HMB monohydrate, 2 g twice daily; or calcium free acid gel, 1 g three times daily; • 3. Continue statin therapy with no dose change; • 4. Obtain baseline lab (lipid panel, CPK, liver function/metabolic profile) and repeat in 12 weeks; • 5. Reassess memory status in 12 weeks repeating psycho-metric testing and comparing to baseline study.

[5] = system: rosuvastatin-induced myalgia and myopathy; assay: Initial assessment of HMB reversal of statin myalgia (single volunteer); type: in vivo, human
Procedure: A healthy, fully informed and consenting adult volunteer with severe rosuvastatin-induced myalgia and myopathy and pre-statin LDL of 260 was administered 1 gram HMB three times a day (3 grams/day total) while rosuvastatin therapy was continued. Within 72 hours of the initial HMB administration, statin myalgia/myopathy fully subsided. During brief intervals where HMB treatment was discontinued (i.e., unintentionally skipped doses), the subject reported a return of myalgia, which again subsided upon reinstatement of HMB treatment.

[6] = system: statin-induced abnormal liver function; assay: Treatment of statin-induced abnormal liver function using HMB; type: in vivo, human; details: within 3 months of beginning HMB treatment
Procedure: Elevated liver function tests (LFTs) are common in statin users. The presence of elevated transaminases, commonly the transaminases alanine transaminase (ALT or SGPT) and aspartate transaminase (AST or SGOT), are indicators of liver damage. Terms for this condition include transaminasemia and transaminitis, Normal ranges for both ALT and AST are 8-40 U/L with mild transaminesemia noted to the upward numerical limit of 250 U/L. Here, HMB is administered to normalize abnormal liver function tests and reverse transaminitis. […] Once enrolled, initiate the following steps: • 1. Initiate calcium HMB monohydrate, 2 g twice daily or HMB free acid (gel form), 1 g three times daily; • 2. Continue statin agent with no dose change; • 3. Repeat liver panel in 3 months and compare to baseline.

[7] = cited from earlier work
[8] = cited from earlier work; remark: listed apart in the source
[9] = system: statin-related cumulative trauma disorder; assay: Treatment of statin-related cumulative trauma disorder using HMB; type: in vivo, human; details: within 6 weeks of beginning HMB treatment
From the text: Cumulative trauma disorder, also known as chronic overuse syndrome, is characterized by muscle damage due to performing repetitive activities over time. Statin users are particularly vulnerable to cumulative trauma disorder due to impaired ability to heal chronically micro-traumatized muscle. Here, HMB is used to treat cumulative trauma disorder. Protocol: Patients are enrolled if they qualify with symptoms that include chronic muscle weakness and pain complemented by an occupation or lifestyle lending itself to chronic overuse syndrome (e.g., construction workers, etc.). All patients are currently on statins. Initial documentation of strength levels and pain severity are required. Pain is evaluated using the Verbal Numerical Rating Scale (VNRS). Strength is measured using the Manual Muscle Testing/5-point scale. Additionally, grip strength is measured using a dynamometer. Once enrolled, the following steps are initiated: • 1. Obtain baseline lab including lipid panel and CPK-MM levels; • 2. Continue statin with dose unchanged; • 3. Continue repetitive activity in question at the same level of intensity; • 4. […]

With `CC(C)(O)CC(=O)O` [HMB, β-hydroxy β-methylbutyrate] the “short term memory loss” value ([1]; Patient F-6, atorvastatin 40 mg + Zetia 10 mg + 2 g BID, 2-month follow-up) was “mostly resolved”, the “response of SIM symptoms” value ([1]; all 14 qualifying patients, combination statin plus HMB) was “complete resolution of SIM symptoms” and the SIM-related myalgia ([1]; the disqualified patient with GI upset, after HMB treatment) was “resolved completely”. The “human equivalent of NOAEL assuming a body weight of 150 lbs” value ([2]; females) was 45 g, the “human equivalent of NOAEL assuming a body weight of 150 lbs” value ([2]; males) was 38 g and the fasting blood glucose ([3]; diabetic patients, within 6 weeks) was “less than 130 mg %”. The “hemoglobin A1C” value ([3]; diabetics, within 6 weeks of beginning HMB treatment) was “below 6.5%”, the fasting blood glucose ([3]; hyperglycemic/non-diabetic management patients, within 6 weeks) was “less than 100 mg %” and the “hemoglobin A1C” value ([3]; hyperglycemics on dietary management, within 6 weeks) was less than 5.7%. For the same compound, the short-term memory loss [4] was “reversal of some or all short-term memory loss”, the “time until statin myalgia/myopathy fully subsided” value ([5]; 1 gram HMB three times a day, rosuvastatin continued, one volunteer) was no more than 72 h and the “benefit of increased HMB dosage” value ([5]; increase to 6 grams/day) was “no additional benefit”. The ALT/SGPT [6] was “less than 40 U/L”, the AST/SGOT [6] was “less than 40 U/L” and the “toxicological parameters in serum” value ([7]; 3 g HMB daily for up to 8 weeks, youth and older persons) was “failed to alter toxicological parameters in serum”. The “safety on long administration” value ([7]; 3 g daily, one year of administration) was “safe”, the “toxic effects on serum parameters” value ([7]; approximately 6 g HMB daily (78 mg/kg) for one month, untrained young males subject to exercise) was “did not show any toxic effects” and the tolerability ([7]; standard doses, long periods of time) was “well-tolerated”. For the same compound, the half-life ([8]; in vivo) was “relatively short”, the “time to peak levels” value ([8]; in vivo) was “quickly” and the “area under blood level curve” value ([8]; when ingested with glucose) was “reduced”. The pain severity [9] was “reduced pain severity” and the strength levels [9] was “increased strength levels”.
